Reference: ChEMBL document CHEMBL1629435, “Novel insights into the use of Glowing LNA as nucleic acid detection probes--influence of labeling density and nucleobases” (Bioorg Med Chem Lett, 2010)

How the values were obtained:
Type in all cases: nucleic-acid assay
Nucleic Acid [1] = test: Binding affinity to CGT AGA GTG DNA sequence assessed as change in melting temperature by thermal denaturation assay
Nucleic Acid [2] = test: Binding affinity to CGU AGA GUG RNA sequence assessed as change in melting temperature by thermal denaturation assay
Nucleic Acid [3] = test: Binding affinity to CGU AGA GUG RNA sequence assessed as melting temperature by thermal denaturation assay
Nucleic Acid [4] = test: Binding affinity to CGT AGA GTG DNA sequence assessed as melting temperature by thermal denaturation assay
Nucleic Acid [5] = test: Binding affinity to CGT ATA GTG DNA sequence assessed as change in melting temperature by thermal denaturation assay
Nucleic Acid [6] = test: Binding affinity to CGT ACA GTG DNA sequence assessed as change in melting temperature by thermal denaturation assay
Nucleic Acid [7] = test: Binding affinity to CGT AAA GTG DNA sequence assessed as change in melting temperature by thermal denaturation assay
Nucleic Acid [8] = test: Binding affinity to AAA TAT ATA GTG DNA sequence by fluorescence emission spectrum analysis
Nucleic Acid [9] = test: Binding affinity to AAA UAU AUA GUG C RNA sequence by fluorescence emission spectrum analysis
Nucleic Acid [10] = test: Binding affinity to AAA TAT ATA GTG C DNA sequence assessed as melting temperature by thermal denaturation assay
Nucleic Acid [11] = test: Binding affinity to AAA TAT ATA GTG C DNA sequence assessed as change in melting temperature by thermal denaturation assay
Nucleic Acid [12] = test: Binding affinity to AAA UAU AUA GUG C RNA sequence assessed as change in melting temperature by thermal denaturation assay
Nucleic Acid [13] = test: Binding affinity to AAA UAU AUA GUG C RNA sequence assessed as melting temperature by thermal denaturation assay
Nucleic Acid [14] = test: Binding affinity to CGU ACA GUG RNA sequence assessed as change in melting temperature by thermal denaturation assay
Nucleic Acid [15] = test: Binding affinity to CGU AUA GUG RNA sequence assessed as change in melting temperature by thermal denaturation assay
Nucleic Acid [16] = test: Binding affinity to CGU AAA GUG RNA sequence assessed as change in melting temperature by thermal denaturation assay

## Cc1cn([C@@H]2O[C@@]3(COP(=O)(O)O[C@H]4C[C@H](n5cc(C)c(=O)[nH]c5=O)O[C@@H]4COP(=O)(O)O[C@H]4[C@@H](O)[C@H](n5ccc(N)nc5=O)O[C@@H]4COP(=O)(O)O[C@H]4C[C@H](n5cc(C)c(=O)[nH]c5=O)O[C@@H]4COP(=O)(O)O[C@H]4[C@@H](O)[C@H](n5cnc6c(N)ncnc65)O[C@@H]4COP(=O)(O)O[C@H]4[C@@H](O)[C@H](n5ccc(N)nc5=O)O[C@@H]4COP(=O)(O)O[C@H]4[C@@H](O)[C@H](n5cnc6c(=O)[nH]c(N)nc65)O[C@@H]4COP(=O)(O)O)CN(C(=O)c4ccc5ccc6cccc7ccc4c5c67)[C@@H]2[C@@H]3OP(=O)(O)OC[C@H]2O[C@@H](n3cnc4c(N)ncnc43)[C@H](O)[C@@H]2OP(=O)(O)OC[C@H]2O[C@@H](n3ccc(N)nc3=O)[C@H](O)[C@@H]2O)c(=O)nc1N
Nucleic Acid [1]
  ΔTm: 2.5 °C
Nucleic Acid [2]
  ΔTm: 3.5 °C
Nucleic Acid [3]
  Tm: 40 °C
Nucleic Acid [4]
  Tm: 37 °C

## Cc1cn([C@@H]2O[C@@]3(COP(=O)(O)O[C@H]4C[C@H](n5cc(C)c(=O)[nH]c5=O)O[C@@H]4COP(=O)(O)O[C@H]4[C@@H]5[C@H](n6cc(C)c(N)nc6=O)O[C@@]4(COP(=O)(O)O[C@H]4C[C@H](n6cc(C)c(=O)[nH]c6=O)O[C@@H]4COP(=O)(O)O[C@H]4[C@@H](O)[C@H](n6cnc7c(N)ncnc76)O[C@@H]4COP(=O)(O)O[C@H]4[C@@H](O)[C@H](n6ccc(N)nc6=O)O[C@@H]4COP(=O)(O)O[C@H]4[C@@H](O)[C@H](n6cnc7c(=O)[nH]c(N)nc76)O[C@@H]4COP(=O)(O)O)CN5C(=O)c4ccc5ccc6cccc7ccc4c5c67)CN(C(=O)c4ccc5ccc6cccc7ccc4c5c67)[C@@H]2[C@@H]3OP(=O)(O)OC[C@H]2O[C@@H](n3cnc4c(N)ncnc43)[C@H](O)[C@@H]2OP(=O)(O)OC[C@H]2O[C@@H](n3ccc(N)nc3=O)[C@H](O)[C@@H]2O)c(=O)nc1N
Nucleic Acid [5]
  ΔTm: -30 °C
Nucleic Acid [1]
  ΔTm: 4.5 °C
Nucleic Acid [6]
  ΔTm: -30 °C
Nucleic Acid [7]
  ΔTm: -27 °C
Nucleic Acid [2]
  ΔTm: 8 °C
Nucleic Acid [8]
  fold change (FC): 3.6
Nucleic Acid [3]
  Tm: 52.5 °C
Nucleic Acid [4]
  Tm: 43 °C
Nucleic Acid [9]
  fold change (FC): 3.6

## Cc1cn([C@@H]2O[C@@]3(COP(=O)(O)O[C@H]4[C@@H](O)[C@H](n5cnc6c(N)ncnc65)O[C@@H]4COP(=O)(O)O[C@H]4[C@@H]5[C@H](n6cc(C)c(=O)[nH]c6=O)O[C@@]4(COP(=O)(O)O[C@H]4C[C@H](n6cc(C)c(=O)[nH]c6=O)O[C@@H]4COP(=O)(O)O[C@H]4C[C@H](n6cc(C)c(=O)[nH]c6=O)O[C@@H]4COP(=O)(O)O)CN5C(=O)c4ccc5ccc6cccc7ccc4c5c67)CN(C(=O)c4ccc5ccc6cccc7ccc4c5c67)[C@@H]2[C@@H]3OP(=O)(O)OC[C@H]2O[C@@H](n3cnc4c(N)ncnc43)[C@H](O)[C@@H]2OP(=O)(O)OC[C@H]2O[C@@H](n3cc(C)c(=O)[nH]c3=O)C[C@@H]2OP(=O)(O)OC[C@H]2O[C@@H](n3cnc4c(N)ncnc43)[C@H](O)[C@@H]2OP(=O)(O)OC[C@H]2O[C@@H](n3cc(C)c(=O)[nH]c3=O)C[C@@H]2OP(=O)(O)OC[C@H]2O[C@@H](n3ccc(N)nc3=O)[C@H](O)[C@@H]2OP(=O)(O)OC[C@H]2O[C@@H](n3cnc4c(N)ncnc43)[C@H](O)[C@@H]2OP(=O)(O)OC[C@H]2O[C@@H](n3ccc(N)nc3=O)[C@H](O)[C@@H]2OP(=O)(O)OC[C@H]2O[C@@H](n3cnc4c(=O)[nH]c(N)nc43)[C@H](O)[C@@H]2O)c(=O)[nH]c1=O
Nucleic Acid [10]
  Tm: 46.5 °C
Nucleic Acid [11]
  ΔTm: 6.5 °C
Nucleic Acid [12]
  ΔTm: 8 °C
Nucleic Acid [13]
  Tm: 48 °C
Nucleic Acid [8]
  fold change (FC): 3.5
Nucleic Acid [9]
  fold change (FC): 3.5

## Cc1cn([C@@H]2O[C@@]3(COP(=O)(O)O[C@H]4[C@@H](O)[C@H](n5cnc6c(=O)[nH]c(N)nc65)O[C@@H]4COP(=O)(O)O)CN(C(=O)c4ccc5ccc6cccc7ccc4c5c67)[C@@H]2[C@@H]3OP(=O)(O)OC[C@H]2O[C@@H](n3cnc4c(N)ncnc43)[C@H](O)[C@@H]2OP(=O)(O)OC[C@H]2O[C@@H](n3cc(C)c(=O)[nH]c3=O)C[C@@H]2OP(=O)(O)OC[C@@]23CN(C(=O)c4ccc5ccc6cccc7ccc4c5c67)[C@@H]([C@H](n4cc(C)c(N)nc4=O)O2)[C@@H]3OP(=O)(O)OC[C@H]2O[C@@H](n3cc(C)c(=O)[nH]c3=O)C[C@@H]2OP(=O)(O)OC[C@H]2O[C@@H](n3ccc(N)nc3=O)[C@H](O)[C@@H]2OP(=O)(O)OC[C@H]2O[C@@H](n3cnc4c(N)ncnc43)[C@H](O)[C@@H]2OP(=O)(O)OC[C@H]2O[C@@H](n3ccc(N)nc3=O)[C@H](O)[C@@H]2O)c(=O)nc1N
Nucleic Acid [5]
  ΔTm: -32.5 °C
Nucleic Acid [1]
  ΔTm: 5.5 °C
Nucleic Acid [6]
  ΔTm: -30 °C
Nucleic Acid [7]
  ΔTm: -27 °C
Nucleic Acid [2]
  ΔTm: 5.5 °C
Nucleic Acid [8]
  fold change (FC): 3.6
Nucleic Acid [3]
  Tm: 47 °C
Nucleic Acid [4]
  Tm: 45 °C
Nucleic Acid [9]
  fold change (FC): 3.6

## Cc1cn([C@H]2C[C@H](OP(=O)(O)OC[C@H]3O[C@@H](n4ccc(N)nc4=O)[C@H](O)[C@@H]3OP(=O)(O)OC[C@H]3O[C@@H](n4cnc5c(N)ncnc54)[C@H](O)[C@@H]3OP(=O)(O)OC[C@H]3O[C@@H](n4ccc(N)nc4=O)[C@H](O)[C@@H]3O)[C@@H](COP(=O)(O)O[C@H]3[C@@H](O)[C@H](n4ccc(N)nc4=O)O[C@@H]3COP(=O)(O)O[C@H]3C[C@H](n4cc(C)c(=O)[nH]c4=O)O[C@@H]3COP(=O)(O)O[C@H]3[C@@H](O)[C@H](n4cnc5c(N)ncnc54)O[C@@H]3COP(=O)(O)O[C@H]3[C@@H](O)[C@H](n4ccc(N)nc4=O)O[C@@H]3COP(=O)(O)O[C@H]3[C@@H](O)[C@H](n4cnc5c(=O)[nH]c(N)nc54)O[C@@H]3COP(=O)(O)O)O2)c(=O)[nH]c1=O
Nucleic Acid [5]
  ΔTm: -21.5 °C
Nucleic Acid [14]
  ΔTm: < -26.5 °C
Nucleic Acid [6]
  ΔTm: < -24.5 °C
Nucleic Acid [15]
  ΔTm: < -26.5 °C
Nucleic Acid [7]
  ΔTm: < -24.5 °C
Nucleic Acid [16]
  ΔTm: -23.5 °C
Nucleic Acid [3]
  Tm: 36.5 °C
Nucleic Acid [4]
  Tm: 34.5 °C

## Cc1cn([C@@H]2O[C@@]3(COP(=O)(O)O[C@H]4[C@@H](O)[C@H](n5cnc6c(=O)[nH]c(N)nc65)O[C@@H]4COP(=O)(O)O)CN(C(=O)c4ccc5ccc6cccc7ccc4c5c67)[C@@H]2[C@@H]3OP(=O)(O)OC[C@H]2O[C@@H](n3cnc4c(N)ncnc43)[C@H](O)[C@@H]2OP(=O)(O)OC[C@H]2O[C@@H](n3cc(C)c(=O)[nH]c3=O)C[C@@H]2OP(=O)(O)OC[C@@]23CN(C(=O)c4ccc5ccc6cccc7ccc4c5c67)[C@@H]([C@H](n4cc(C)c(N)nc4=O)O2)[C@@H]3OP(=O)(O)OC[C@H]2O[C@@H](n3cc(C)c(=O)[nH]c3=O)C[C@@H]2OP(=O)(O)OC[C@@]23CN(C(=O)c4ccc5ccc6cccc7ccc4c5c67)[C@@H]([C@H](n4cc(C)c(N)nc4=O)O2)[C@@H]3OP(=O)(O)OC[C@H]2O[C@@H](n3cnc4c(N)ncnc43)[C@H](O)[C@@H]2OP(=O)(O)OC[C@H]2O[C@@H](n3ccc(N)nc3=O)[C@H](O)[C@@H]2O)c(=O)nc1N
Nucleic Acid [5]
  ΔTm: -31.5 °C
Nucleic Acid [1]
  ΔTm: 5 °C
Nucleic Acid [6]
  ΔTm: -31 °C
Nucleic Acid [7]
  ΔTm: -27 °C
Nucleic Acid [2]
  ΔTm: 8.5 °C
Nucleic Acid [8]
  fold change (FC): 3.6
Nucleic Acid [3]
  Tm: 62 °C
Nucleic Acid [4]
  Tm: 49.5 °C
Nucleic Acid [9]
  fold change (FC): 3.6

## Cc1cn([C@@H]2O[C@@]3(COP(=O)(O)O[C@H]4C[C@H](n5cnc6c(N)ncnc65)O[C@@H]4COP(=O)(O)O[C@H]4C[C@H](n5cnc6c(=O)[nH]c(N)nc65)O[C@@H]4COP(=O)(O)O[C@H]4[C@H]5OC[C@]4(COP(=O)(O)O[C@H]4C[C@H](n6cnc7c(=O)[nH]c(N)nc76)O[C@@H]4CO)O[C@H]5n4cc(C)c(=O)[nH]c4=O)CO[C@@H]2[C@@H]3OP(=O)(O)OC[C@H]2O[C@@H](n3cnc4c(N)ncnc43)C[C@@H]2OP(=O)(O)OC[C@@]23CO[C@@H]([C@H](n4cc(C)c(=O)[nH]c4=O)O2)[C@@H]3OP(=O)(O)OC[C@H]2O[C@@H](n3cnc4c(=O)[nH]c(N)nc43)C[C@@H]2OP(=O)(O)OC[C@H]2O[C@@H](n3ccc(N)nc3=O)C[C@@H]2O)c(=O)[nH]c1=O
Nucleic Acid [10]
  Tm: 45.5 °C
Nucleic Acid [11]
  ΔTm: 6 °C
Nucleic Acid [12]
  ΔTm: 7 °C
Nucleic Acid [13]
  Tm: 46.5 °C
Nucleic Acid [8]
  fold change (FC): 3.5
Nucleic Acid [9]
  fold change (FC): 3.5
